Experiments:
[1] = Dissolution rate measurement (UV, 250 mL medium, 150 RPM, 2 h, 37 °C); format: physicochemical; conditions: for Time-dependent dissolution rate: 37 °C
Protocol: The solubility and dissolution studies of pure PUE, I, and II were measured using a Thermo Scientific Evolution 300 UV spectrometer in deionized water at pH 7.0, gastrointestinal tract at pH 1.2, and phosphate buffer at pH 6.8 solution at 37 °C. The concentration was calculated utilizing a standard curve, which was made by measuring the absorbance of different concentrations at their λmax. A superfluity sum of the sample was added to 10 mL of H2O medium, pH 1.2 and pH 6.8 phosphate, respectively.
The oversaturated solution was stirred at 500 RPM by magnetic stirring at 37 °C for 24 h and the suspension was filtered through Whatman’s […] syringe channel, diluted sufficiently and the absorbance was measured at their λmax. For the dissolution rate, the sample was specifically poured into 250 mL pH 7.0 water, pH 1.2 gastrointestinal tract, and pH 6.8 phosphates medium and then stirred at 150 RPM for 2h at 37 °C. Each solution was measured by the absorbance at λmax. At customary interims, the solution was replenished with 3 mL of the respective blank solution to maintain an overall steady volume.

CT-26 cancer cell lines = assay: Cytotoxicity evaluation by MTT assay, CT-26; format: cell-based, murine; conditions: CT-26, culturing 24 h
Protocol: (§1) CT-26 and HEK-293 cell line was purchased from American Type Culture Collection (Manassas, VA, USA). The cell lines were cultured in RPMI 1640 (for CT-26) or DMEM (for HEK-293) containing 10% fetal bovine serum (FBS, Zhejiang Tianhang Biotechnology Co. Ltd., Hangzhou, China) and 1% penicillin/streptomycin (Zhejiang Tianhang Biotechnology Co. Ltd., Hangzhou, China). Cells grew as a monolayer and were detached upon confluence using trypsin (0.5% w/v in PBS, Zhejiang Tianhang Biotechnology Co. Ltd., Hangzhou, China). The cells were harvested from the cell culture medium by incubating in trypsin solution for 3 min. The cells were centrifuged, and the supernatant discarded. A 3 mL portion of serum-supplemented cell culture medium was added to neutralize any residual trypsin. The cells were re-suspended in serum-supplemented RPMI 1640 (for CT-26) or DMEM (for HEK-293) at a concentration of 5 × 10^4 cells per 1 mL. Cells were cultured at 37 °C and 5% CO2 for MTT studies.
(§2) The CT-26 or HEK-293 cells were seeded at a density of 1 × 10^4 cells per well in 100 µL of complete RPMI 1640 (CT-26) or DMEM (for HEK-293), and cultured for 16 h for attachment. The culture medium was then replaced by a serum-free medium containing various concentrations of pristine PUE, I, and II. […] After incubating the cells at 37 °C for 4 h, the MTT solution was removed and DMSO (100 μL) added to dissolve the formazan crystals formed, and the microplates were agitated for 5 min at a medium rate before the spectrophotometric measurement at a wavelength of 570 nm on a microplate reader. […] The relative cell viability (%) related to control cells was calculated by the formula below: V%=[A]experimental−[A]blank/[A]control−[A]blank×100% where V% is the percentage of cell viability, [A]experimental is the absorbance of the wells culturing the treated cells, [A]blank is the absorbance of the blank, and [A]control is the absorbance of the wells culturing untreated cells.

HEK-293 cell lines = assay: Cytotoxicity evaluation by MTT assay, HEK-293; format: cell-based, human; conditions: HEK-293, culturing 24 h
Protocol: as §1, §2

SMILES: CCO.O.O.O=C(O)[C@@H]1CCCN1.O=c1c(-c2ccc(O)cc2)coc2c([C@@H]3O[C@H](CO)[C@@H](O)[C@H](O)[C@H]3O)c(O)ccc12.O=c1c(-c2ccc(O)cc2)coc2c([C@@H]3O[C@H](CO)[C@@H](O)[C@H](O)[C@H]3O)c(O)ccc12 [II, [PUE]2[PRO]∙EtOH∙(H2O)2]
- Time-dependent dissolution rate ([1]; Water, 5 min): 0.131 mg/mL
- Time-dependent dissolution rate ([1]; Water, 10 min): 0.210 mg/mL
- Time-dependent dissolution rate ([1]; Water, 15 min): 0.281 mg/mL
- Time-dependent dissolution rate ([1]; Water, 20 min): 0.457 mg/mL
- Time-dependent dissolution rate ([1]; Water, 25 min): 0.567 mg/mL
- Time-dependent dissolution rate ([1]; Water, 30 min): 0.701 mg/mL
- Time-dependent dissolution rate ([1]; Water, 40 min): 1.450 mg/mL
- Time-dependent dissolution rate ([1]; Water, 50 min): 2.110 mg/mL
- Time-dependent dissolution rate ([1]; Water, 60 min): 2.490 mg/mL
- Time-dependent dissolution rate ([1]; Water, 80 min): 2.840 mg/mL
- Time-dependent dissolution rate ([1]; Water, 100 min): 3.203 mg/mL
- Time-dependent dissolution rate ([1]; Water, 120 min): 3.410 mg/mL
- Time-dependent dissolution rate ([1]; pH 1.2, 5 min): 0.171 mg/mL
- Time-dependent dissolution rate ([1]; pH 1.2, 10 min): 0.240 mg/mL
- Time-dependent dissolution rate ([1]; pH 1.2, 15 min): 0.337 mg/mL
- Time-dependent dissolution rate ([1]; pH 1.2, 20 min): 0.417 mg/mL
- Time-dependent dissolution rate ([1]; pH 1.2, 25 min): 0.479 mg/mL
- Time-dependent dissolution rate ([1]; pH 1.2, 30 min): 0.534 mg/mL
- Time-dependent dissolution rate ([1]; pH 1.2, 40 min): 1.005 mg/mL
- Time-dependent dissolution rate ([1]; pH 1.2, 50 min): 1.342 mg/mL
- Time-dependent dissolution rate ([1]; pH 1.2, 60 min): 1.489 mg/mL
- Time-dependent dissolution rate ([1]; pH 1.2, 80 min): 1.683 mg/mL
- Time-dependent dissolution rate ([1]; pH 1.2, 100 min): 1.923 mg/mL
- Time-dependent dissolution rate ([1]; pH 1.2, 120 min): 2.005 mg/mL
- dissolution rate compared with the other forms ([1]; pH 1.2, pH 6.8, H2O pH 7.0): higher dissolution rate than both I and PUE
- Time-dependent dissolution rate ([1]; pH 6.8, 5 min): 0.121 mg/mL
- Time-dependent dissolution rate ([1]; pH 6.8, 10 min): 0.212 mg/mL
- Time-dependent dissolution rate ([1]; pH 6.8, 15 min): 0.352 mg/mL
- Time-dependent dissolution rate ([1]; pH 6.8, 20 min): 0.446 mg/mL
- Time-dependent dissolution rate ([1]; pH 6.8, 25 min): 0.537 mg/mL
- Time-dependent dissolution rate ([1]; pH 6.8, 30 min): 0.861 mg/mL
- Time-dependent dissolution rate ([1]; pH 6.8, 40 min): 1.059 mg/mL
- Time-dependent dissolution rate ([1]; pH 6.8, 50 min): 1.503 mg/mL
- Time-dependent dissolution rate ([1]; pH 6.8, 60 min): 2.210 mg/mL
- Time-dependent dissolution rate ([1]; pH 6.8, 80 min): 2.723 mg/mL
- Time-dependent dissolution rate ([1]; pH 6.8, 100 min): 3.138 mg/mL
- Time-dependent dissolution rate ([1]; pH 6.8, 120 min): 3.370 mg/mL
- cytotoxicity (MTT cell viability) (CT-26 cancer cell lines): negligible cytotoxicity
- cytotoxicity (MTT cell viability) (HEK-293 cell lines): negligible cytotoxicity

From article PMC7832312, “Enhancing the Physiochemical Properties of Puerarin via L-Proline Co-Crystallization: Synthesis, Characterization, and Dissolution Studies of Two Phases of Pharmaceutical Co-Crystals” (International Journal of Molecular Sciences, 2021)
